Read-outs that look alike come from different tables or passages of the source. Starred links: 1 amine or outer side, 2 acyl side, 3 side chain; linkers in the order of their positions; H or OH if unused. Positions of bridges follow the written chain, without caps; N, C: chain ends. Non-standard residues stand in square brackets, D forms with d. Residues, ends and D or L forms follow the SMILES beside them. *: point of attachment. Phe(3-NHCO(CH2)3SO2NH2) = N[C@@H](Cc1cccc(NC(=O)CCCS(N)(=O)=O)c1)C(=O)O; DOTA = O=C(O)CN1CCN(CC(=O)O)CCN(CC(=O)*)CCN(CC(=O)O)CC1; Trp(5-Cl) = N[C@@H](Cc1c[nH]c2ccc(Cl)cc12)C(=O)O; 1Nal = N[C@@H](Cc1cccc2ccccc12)C(=O)O; mXylylene = c1cc(C[*:1])cc(C[*:2])c1; Bta = N[C@@H](Cc1csc2ccccc12)C(=O)O; X2 = O=C(CN1CCC(N[*:1])CC1)[*:2]; tBuAla = CC(C)(C)C[C@H](N)C(=O)O; X1 = O=C(CN1CCN([*:1])CC1)[*:2]; X53 = Cc1cc2cc(CN*)ccc2[nH]c1=O; X42 = c1ccc2cc(CN*)ccc2c1; Dab = NCC[C@H](N)C(=O)O; Thp = NC1(C(=O)O)CCOCC1; Aib = CC(C)(N)C(=O)O; βAla = NCCC(=O)O; Sar = CNCC(=O)O
Molecular target: T1, CAIX-expressing human HT-29 colorectal cancer cells (Homo sapiens, UniProt Q16790)
T1 construct: CAIX-expressing human HT-29 colorectal cancer cells; host or cells: HT-29 human colorectal cancer cells
Experiment: FACS binding assay (IC50 determination, competition with tracer 3BP-2776 or 3BP-4149)
Settings: 4° C., 1 hour, read-out: pIC50 category (activity) (converted)
Summary of the method: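 HT-29 cells in FACS buffer (PBS, 1% FCS) at 500.000 cells/ml were exposed to compounds competing with a labelled tracer, with biotinylated compounds detected by 1 μg/mL APC-streptavidin for 30 min on ice. APC/Cy5 median fluorescence was read by flow cytometry and IC50 derived by 4PL fit.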

[1] = FACS binding assay, HT-29 cells, competition with tracer 3BP-2776 (10 nM, biotin-labeled)
[2] = FACS competition on HT-29 cells, Tracer ID 3BP-2776 (10 nM, biotin-labeled)

SMILES | IC50 [1] [nM] | IC50 [2] [nM] | further results
CC(C)C[C@@H]1NC(=O)[C@H](Cc2ccccc2)NC(=O)[C@H](CC(=O)O)NC(=O)[C@H]2CCCN2C(=O)[C@H](CCC(=O)O)NC(=O)[C@@H](NC(=O)[C@H](Cc2ccc(O)cc2)NC(=O)[C@@H](NC(=O)CN2CCC(NC(=O)CN3CCN(CC(=O)O)CCN(CC(=O)O)CCN(CC(=O)O)CC3)CC2)C(C)C)CSCc2cccc(c2)CSC[C@@H](C(N)=O)NC(=O)[C@H](CO)NC(=O)[C@H](Cc2c[nH]c3ccccc23)NC(=O)[C@H]([C@@H](C)O)NC1=O [3BP-3596] ({DOTA}-[X2]VYCE[dP]DFLTWSC-NH2; linker 4-13 via mXylylene) |  | < 10 | 
CC(=O)N[C@H](C(=O)N[C@@H](Cc1ccc(O)cc1)C(=O)N[C@H]1CSCc2cccc(c2)CSC[C@@H](C(N)=O)NC(=O)[C@H](CCC(N)=O)NC(=O)[C@H](Cc2c[nH]c3ccccc23)NC(=O)[C@H]([C@@H](C)O)NC(=O)[C@H](CC(C)C)NC(=O)[C@H](Cc2cccc3ccccc23)NC(=O)[C@H](CC(=O)O)NC(=O)CN(C)C(=O)[C@H](CCC(=O)O)NC1=O)C(C)C [3BP-3314] (Ac-VYCE[Sar]D[1Nal]LTWQC-NH2; linker 3-12 via mXylylene) |  | < 10 | 
C[C@@H](O)[C@@H]1NC(=O)[C@H](CC(C)(C)C)NC(=O)[C@H](Cc2cccc(NC(=O)CCCS(N)(=O)=O)c2)NC(=O)[C@H](CC(=O)O)NC(=O)[C@H]2CCCN2C(=O)[C@H](CCC(=O)O)NC(=O)[C@@H](NC(=O)[C@H](Cc2ccc(O)cc2)NC(=O)CN2CCN(C(=O)CN3CCN(CC(=O)O)CCN(CC(=O)O)CCN(CC(=O)O)CC3)CC2)CSCc2cccc(c2)CSC[C@@H](C(N)=O)NC(=O)[C@H](CO)NC(=O)[C@H](Cc2c[nH]c3ccccc23)NC1=O [3BP-4449] ({DOTA}-[X1]YCE[dP]D[Phe(3-NHCO(CH2)3SO2NH2)][tBuAla]TWSC-NH2; linker 3-12 via mXylylene) | < 10 |  | 
CC(C)C[C@@H]1NC(=O)[C@H](Cc2c[nH]c3ccccc23)NC(=O)[C@H](CO)NC(=O)[C@H]2CCCCNC(=O)CC[C@H](NC1=O)C(=O)N[C@@H](Cc1c[nH]c3ccccc13)C(=O)N[C@@H](CO)C(=O)N[C@H](C(N)=O)CSCc1cccc(c1)CSC[C@H](NC(=O)[C@H](Cc1ccc(O)cc1)NC(=O)[C@@H](NC(=O)CN1CCC(NC(=O)CN3CCN(CC(=O)O)CCN(CC(=O)O)CCN(CC(=O)O)CC3)CC1)C(C)C)C(=O)N[C@@H](CCC(=O)O)C(=O)N2 [3BP-4115] ({DOTA}-[X2]VYCE[dK]SWLEWSC-NH2; linker 4-13 via mXylylene; lactam 6-10) | 10 to 79.4 |  | 
Cc1cc2cc(CNC(=O)CC[C@@H]3NC(=O)[C@H]4CCCN4C(=O)[C@H](CCC(=O)O)NC(=O)[C@@H](NC(=O)[C@H](Cc4ccc(O)cc4)NC(=O)[C@@H](NC(=O)CN4CCC(NC(=O)CN5CCN(CC(=O)O)CCN(CC(=O)O)CCN(CC(=O)O)CC5)CC4)C(C)C)CSCc4cccc(c4)CSC[C@@H](C(N)=O)NC(=O)[C@H](CO)NC(=O)[C@H](Cc4c[nH]c5ccccc45)NC(=O)[C@H]([C@@H](C)O)NC(=O)[C@H](CC(C)C)NC(=O)[C@H](Cc4c[nH]c5ccccc45)NC3=O)ccc2[nH]c1=O [3BP-4390] ({DOTA}-[X2]VYCE[dP]E(X53)WLTWSC-NH2; linker 4-13 via mXylylene) |  |  | IC50 (FACS binding assay, HT-29 cells, competition with tracer 3BP-4149 (3 nM, Cy5-labeled)): 10 to 79.4 nM
CC(=O)N[C@H](C(=O)N[C@@H](Cc1ccc(O)cc1)C(=O)N[C@@H]1CSCc2cccc(c2)CSC[C@@H](C(N)=O)NC(=O)[C@H](CO)NC(=O)[C@H](Cc2c[nH]c3ccccc23)NC(=O)[C@H]([C@@H](C)O)NC(=O)[C@H](CC(C)C)NC(=O)[C@H](Cc2c[nH]c3ccccc23)NC(=O)CCNC1=O)C(C)C [3BP-3604] (Ac-VY[dC][βAla]WLTWSC-NH2; linker 3-10 via mXylylene) |  | 100 to 794 | 
CC(C)C[C@@H]1NC(=O)[C@H](Cc2cccc(NC(=O)C3CCC(S(N)(=O)=O)CC3)c2)NC(=O)[C@H](CC(=O)O)NC(=O)[C@H]2CCCN2C(=O)[C@H](CCC(=O)O)NC(=O)[C@@H](NC(=O)[C@H](CCC(N)=O)NC(=O)CN2CCN(C(=O)CN3CCN(CC(=O)O)CCN(CC(=O)O)CCN(CC(=O)O)CC3)CC2)CSCc2cccc(c2)CSC[C@@H](C(N)=O)NC(=O)[C@H](CO)NC(=O)[C@H](Cc2c[nH]c3ccccc23)NC(=O)[C@H]([C@@H](C)O)NC1=O (stereo partly shown) [3BP-4787] | 100 to 794 |  | 
CC(=O)N[C@H](C(=O)N[C@@H](Cc1ccc(O)cc1)C(=O)N[C@H]1CSCc2cccc(c2)CSC[C@@H](C(N)=O)NC(=O)[C@H](CCC(N)=O)NC(=O)[C@H](Cc2csc3ccccc23)NC(=O)[C@H]([C@@H](C)O)NC(=O)[C@H](CC(C)C)NC(=O)[C@H](Cc2c[nH]c3ccccc23)NC(=O)[C@H](CC(=O)O)NC(=O)CN(C)C(=O)[C@H](CCC(=O)O)NC1=O)C(C)C [3BP-3315] (Ac-VYCE[Sar]DWLT[Bta]QC-NH2; linker 3-12 via mXylylene) |  | 100 to 794 | 
CC(C)C[C@@H]1NC(=O)[C@H](Cc2c[nH]c3ccccc23)NC(=O)[C@@H]2CCCCNC(=O)CC[C@H](NC1=O)C(=O)N[C@@H](Cc1c[nH]c3ccccc13)C(=O)N[C@@H](CO)C(=O)N[C@H](C(N)=O)CSCc1cccc(c1)CSC[C@H](NC(=O)[C@H](Cc1ccc(O)cc1)NC(=O)[C@@H](NC(=O)CN1CCC(NC(=O)CN3CCN(CC(=O)O)CCN(CC(=O)O)CCN(CC(=O)O)CC3)CC1)C(C)C)C(=O)N[C@@H](CCC(=O)O)C(=O)N1CCC[C@@H]1C(=O)N2 [3BP-3933] ({DOTA}-[X2]VYCE[dP]KWLEWSC-NH2; linker 4-13 via mXylylene; lactam 7-10) |  | 10 to 79.4 | 
CC(C)C[C@@H]1NC(=O)[C@H](Cc2c[nH]c3ccccc23)NC(=O)[C@H](CCC(=O)NCc2ccc3ccccc3c2)NC(=O)[C@H]2CCCN2C(=O)[C@H](CCC(=O)O)NC(=O)[C@@H](NC(=O)[C@H](Cc2ccc(O)cc2)NC(=O)[C@@H](NC(=O)CN2CCC(NC(=O)CN3CCN(CC(=O)O)CCN(CC(=O)O)CCN(CC(=O)O)CC3)CC2)C(C)C)CSCc2cccc(c2)CSC[C@@H](C(N)=O)NC(=O)[C@H](CO)NC(=O)[C@H](Cc2c[nH]c3ccccc23)NC(=O)[C@H]([C@@H](C)O)NC1=O [3BP-4215, DOTA-APAc-Val-Tyr-[Cys(3MeBn)-Glu-pro-Glu(NHMe2Nph)-Trp-Leu-Thr-Trp-Ser-Cys]-NH2] ({DOTA}-[X2]VYCE[dP]E(X42)WLTWSC-NH2; linker 4-13 via mXylylene) | < 10 |  | 
CC(=O)N[C@H](C(=O)N[C@@H](Cc1ccc(O)cc1)C(=O)N[C@H]1CSCc2cccc(c2)CSC[C@@H](C(N)=O)NC(=O)[C@H](C)NC(=O)[C@H](Cc2c[nH]c3ccccc23)NC(=O)[C@H]([C@@H](C)O)NC(=O)C(C)(C)NC(=O)[C@H](Cc2c[nH]c3ccccc23)NC(=O)[C@H](CC(=O)O)NC(=O)[C@H]2CCCN2C(=O)[C@H](CCC(=O)O)NC1=O)C(C)C [3BP-3502] (Ac-VYCE[dP]DW[Aib]TWAC-NH2; linker 3-12 via mXylylene) |  | 10 to 79.4 | 

The next lines start with results.

IC50 [1] [nM] | IC50 [2] [nM] | SMILES | further results
100 to 794 |  | CC(=O)N[C@H](C(=O)N[C@@H](Cc1ccc(O)cc1)C(=O)N[C@H]1CSCc2cccc(c2)CSC[C@@H](C(N)=O)NC(=O)[C@H](CO)NC(=O)[C@H](Cc2c[nH]c3ccccc23)NC(=O)[C@@H]2CCC(=O)NCCCC[C@H](NC(=O)[C@H]3CCCN3C(=O)[C@H](CCC(=O)O)NC1=O)C(=O)N[C@@H](Cc1c[nH]c3ccccc13)C(=O)NC1(CCOCC1)C(=O)N2)C(C)C [3BP-3962] (Ac-VYCE[dP]KW[Thp]EWSC-NH2; linker 3-12 via mXylylene; lactam 6-9) | 
10 to 79.4 |  | CC(=O)N[C@H](C(=O)N[C@@H](Cc1ccc(O)cc1)C(=O)N[C@H]1CSCc2cccc(c2)CSC[C@@H](C(N)=O)NC(=O)[C@H](CO)NC(=O)[C@H](Cc2c[nH]c3ccccc23)NC(=O)[C@@H]2CCC(=O)NCC[C@H](NC(=O)[C@H]3CCCN3C(=O)[C@H](CCC(=O)O)NC1=O)C(=O)N[C@@H](Cc1c[nH]c3ccccc13)C(=O)N[C@@H](CC(C)C)C(=O)N2)C(C)C [3BP-3960] (Ac-VYCE[dP][Dab]WLEWSC-NH2; linker 3-12 via mXylylene; lactam 6-9) | 
< 10 |  | CC(C)C[C@@H]1NC(=O)[C@H](Cc2cccc(NC(=O)CCCS(N)(=O)=O)c2)NC(=O)[C@H](CC(=O)O)NC(=O)[C@H]2CCCN2C(=O)[C@H](CCC(=O)O)NC(=O)[C@@H](NC(=O)[C@H](CO)NC(=O)CN2CCN(C(=O)CN3CCN(CC(=O)O)CCN(CC(=O)O)CCN(CC(=O)O)CC3)CC2)CSCc2cccc(c2)CSC[C@@H](C(N)=O)NC(=O)[C@H](CO)NC(=O)[C@H](Cc2c[nH]c3ccccc23)NC(=O)[C@H]([C@@H](C)O)NC1=O [3BP-4450] ({DOTA}-[X1]SCE[dP]D[Phe(3-NHCO(CH2)3SO2NH2)]LTWSC-NH2; linker 3-12 via mXylylene) | 
 | 100 to 794 | CC(=O)N[C@H](C(=O)N[C@@H](Cc1ccc(O)cc1)C(=O)N[C@H]1CSCc2cccc(c2)CSC[C@@H](C(N)=O)NC(=O)[C@H](CCC(N)=O)NC(=O)[C@H](Cc2c[nH]c3ccc(Cl)cc23)NC(=O)[C@H]([C@@H](C)O)NC(=O)[C@H](CC(C)C)NC(=O)[C@H](Cc2c[nH]c3ccccc23)NC(=O)[C@H](CC(=O)O)NC(=O)CN(C)C(=O)[C@H](CCC(=O)O)NC1=O)C(C)C [3BP-3312] (Ac-VYCE[Sar]DWLT[Trp(5-Cl)]QC-NH2; linker 3-12 via mXylylene) | 
 | 100 to 794 | CC(=O)N[C@H](C(=O)N[C@@H](Cc1ccc(O)cc1)C(=O)N[C@H]1CSCc2cccc(c2)CSC[C@@H](C(N)=O)NC(=O)[C@H](CCC(N)=O)NC(=O)[C@H](Cc2c[nH]c3ccccc23)NC(=O)[C@H]([C@@H](C)O)NC(=O)[C@H](CC(C)C)NC(=O)[C@H](Cc2c[nH]c3ccccc23)NC(=O)[C@H](CC(=O)O)NC(=O)CNC(=O)[C@@H](CCC(=O)O)NC1=O)C(C)C [3BP-3045] (Ac-VYC[dE]GDWLTWQC-NH2; linker 3-12 via mXylylene) | 

— patent US20250339569A1, “CARBONIC ANHYDRASE IX LIGANDS” (priority 2021, published 2025)
